Patent US20200187502A1, “MICROBIOCIDAL OXADIAZOLE DERIVATIVES” (SYNGENTA PARTICIPATIONS AG, priority 2017, published 2020)

Assays:
[1] = tested on: Puccinia recondita f. Sp. Tritici; assay: Fungicidal activity, wheat leaf disc curative (brown rust); type: in vivo; details: foliar, 200 ppm in the applied formulation, wheat leaf segments cv. Kanzler, curative (applied 1 day after inoculation), compared to untreated control, 6 to 8 days after application, read-out: disease control
Method: Leaf disks or leaf segments of various plant species are cut from plants grown in a greenhouse. The cut leaf disks or segments are placed in multiwell plates (24-well format) onto water agar. The leaf disks are sprayed with a test solution before (preventative) or after (curative) inoculation. Compounds to be tested are prepared as DMSO solutions (max. 10 mg/ml) which are diluted to the appropriate concentration with 0.025% Tween20 just before spraying. The inoculated leaf disks or segments are incubated under defined conditions (temperature, relative humidity, light, etc.) according to the respective test system. A single evaluation of disease level is carried out 3 to 14 days after inoculation, depending on the pathosystem. Percent disease control relative to the untreated check leaf disks or segments is then calculated.
Wheat leaf segments cv. Kanzler are placed on agar in multiwell plates (24-well format). The leaf segments are then inoculated with a spore suspension of the fungus. Plates were stored in darkness at 19° C. and 75% relative humidity. The formulated test compound diluted in water was applied 1 day after inoculation. The leaf segments were incubated at 19° C. and 75% relative humidity under a light regime of 12 hours light/12 hours darkness in a climate cabinet and the activity of a compound was assessed as percent disease control compared to untreated when an appropriate level of disease damage appears in untreated check leaf segments (6 to 8 days after application).
The following compounds at 200 ppm in the applied formulation give at least 80% disease control in this test when compared to untreated control leaf disks under the same conditions, which show extensive disease development.

[2] = tested on: Glomerella lacenarium (Colletotrichum lacenarium); assay: Fungicidal activity, liquid culture, cucumber preventative (anthracnose); type: cell-based; details: 20 ppm in the applied formulation, liquid culture in PDB, inhibition of growth measured photometrically 3 to 4 days after application, compared to untreated control, read-out: disease control
How it was run: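 In liquid culture, cryo-stored conidia in potato dextrose broth were exposed to compound delivered from DMSO solution. Growth inhibition was measured photometrically after 3 to 4 days at 24° C.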

[3] = tested on: Puccinia recondita f. Sp. Tritici; assay: Fungicidal activity, wheat leaf disc preventative (brown rust); type: in vivo; details: foliar, 200 ppm in the applied formulation, wheat leaf segments cv. Kanzler, compared to untreated control, 7 to 9 days after application, read-out: disease control
How it was run: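 Wheat cv. Kanzler leaf segments on agar were sprayed with formulated compound in water, then inoculated with spores 1 day later. Incubated at 19° C, 75% rh, 12 h light/12 h dark; percent disease control versus untreated scored 7 to 9 days after application.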

Row | SMILES | pest or weed control at 200 ppm [1] [%] | inhibition of growth at 20 ppm [2] [%] | pest or weed control at 200 ppm [3] [%]
1 | CCC(=O)C(=O)N(Cc1ccc(-c2noc(C(F)(F)F)n2)s1)C1CC1 [Compound 6.56, N-cyclopropyl-2-oxo-N-[[5-[5-(trifluoromethyl)-1,2,4-oxadiazol-3-yl]-2-thienyl]methyl]butanamide] | ≥ 80 | ≥ 80 | ≥ 80
2 | COCCNC(=O)N(Cc1ccc(-c2noc(C(F)(F)F)n2)s1)C(C)C [Compound 4.84, 1-isopropyl-3-(2-methoxyethyl)-1-[[5-[5-(trifluoromethyl)-1,2,4-oxadiazol-3-yl]-2-thienyl]methyl]urea] | ≥ 80 | ≥ 80 | ≥ 80
3 | CCC(=O)C(=O)N(C)Cc1ccc(-c2noc(C(F)(F)F)n2)s1 [Compound 6.49, N-methyl-2-oxo-N-[[5-[5-(trifluoromethyl)-1,2,4-oxadiazol-3-yl]-2-thienyl]methyl]butanamide] | ≥ 80 | ≥ 80 | ≥ 80
4 | COCCN(CCOC)C(=O)N(Cc1ccc(-c2noc(C(F)(F)F)n2)s1)C1CC1 [Compound 4.91, 1-cyclopropyl-3,3-bis(2-methoxyethyl)-1-[[5-[5-(trifluoromethyl)-1,2,4-oxadiazol-3-yl]-2-thienyl]methyl]urea] | ≥ 80 | ≥ 80 | ≥ 80
5 | CC(C)N(Cc1ccc(-c2noc(C(F)(F)F)n2)s1)C(=O)C(N)=O [Compound 6.9, N′-isopropyl-N′-[[5-[5-(trifluoromethyl)-1,2,4-oxadiazol-3-yl]-2-thienyl]methyl]oxamide] | ≥ 80 | ≥ 80 | ≥ 80
6 | CC1CC1C(=O)N(Cc1ccc(-c2noc(C(F)(F)F)n2)s1)C1CC1 (centres unmarked) [Compound 5.43, N-cyclopropyl-2-methyl-N-[[5-[5-(trifluoromethyl)-1,2,4-oxadiazol-3-yl]-2-thienyl]methyl]cyclopropanecarboxamide] | ≥ 80 | ≥ 80 | ≥ 80
7 | COCCCC(=O)N(Cc1ccc(-c2noc(C(F)(F)F)n2)s1)OCC(F)F [Compound 4.67, N-(2,2-difluoroethoxy)-4-methoxy-N-[[5-[5-(trifluoromethyl)-1,2,4-oxadiazol-3-yl]-2-thienyl]methyl]butanamide] | ≥ 80 | ≥ 80 | ≥ 80
8 | CCCC(=O)N(C)Cc1ccc(-c2noc(C(F)(F)F)n2)s1 [Compound 4.34, N-methyl-N-[[5-[5-(trifluoromethyl)-1,2,4-oxadiazol-3-yl]-2-thienyl]methyl]butanamide] | ≥ 80 | ≥ 80 | ≥ 80
9 | COC(C)C(=O)N(Cc1ccc(-c2noc(C(F)(F)F)n2)s1)C(C)C (centres unmarked) [Compound 4.18, N-isopropyl-2-methoxy-N-[[5-[5-(trifluoromethyl)-1,2,4-oxadiazol-3-yl]-2-thienyl]methyl]propanamide] | ≥ 80 | ≥ 80 | –
10 | CC(C)N(Cc1ccc(-c2noc(C(F)(F)F)n2)s1)C(=O)C1CCC1 [Compound 5.29, N-isopropyl-N-[[5-[5-(trifluoromethyl)-1,2,4-oxadiazol-3-yl]-2-thienyl]methyl]cyclobutanecarboxamide] | ≥ 80 | ≥ 80 | –
11 | CC(C)N(Cc1ccc(-c2noc(C(F)(F)F)n2)s1)C(=O)C1CCCO1 (centres unmarked) [Compound 5.31, N-isopropyl-N-[[5-[5-(trifluoromethyl)-1,2,4-oxadiazol-3-yl]-2-thienyl]methyl]tetrahydrofuran-2-carboxamide] | ≥ 80 | ≥ 80 | –
12 | COC(C)C(=O)N(OC)C(C)c1ccc(-c2noc(C(F)(F)F)n2)s1 (centres unmarked) [Compound 1.49, N,2-dimethoxy-N-[1-[5-[5-(trifluoromethyl)-1,2,4-oxadiazol-3-yl]-2-thienyl]ethyl]propanamide] | ≥ 80 | ≥ 80 | –
